Data taken from publication PMC5304334, “Antifouling potential of Nature-inspired sulfated compounds” (Scientific Reports, 2017).
pEC50: −log10 of the molar value. Entries after “also recorded” stand apart in the source; their conditions may differ. Like-named read-outs stand apart in the source and are kept apart here.

Experiments:
Vibrio harveyi CECT 525 = assay: Antibacterial growth inhibition, Vibrio harveyi; format: cell-based; conditions: V. harveyi
Method: (§1) Antibacterial activities were evaluated against four strains of marine biofilm-forming bacteria Cobetia marina CECT 4278, Vibrio harveyi CECT 525, Halomonas aquamarina CECT 5000, and Pseudoalteromonas atlantica CECT 570, all from Spanish Type Culture Collection (CECT). The bacteria were inoculated and incubated for 24 h at 26 °C in marine broth (Difco) at an initial density of 0.1 (OD600) in 96 well flat-bottom microtiter plates. Sulfated compounds stock solutions were prepared in ultra-pure water. […] Bacterial growth inhibition in the presence of the test compounds was measured in quadriplicate by reading of optical density at 600 nm using a microplate reader (Biotek Synergy HT, Vermont, USA). Marine broth with ultra-pure water and penicilin-streptomycin-neomycin stabilized solution were used as negative (B) and positive (C) controls, respectively.
(§2) For the determination of maximal inhibitory concentrations (IC) a serial dilution of the stock solution was used to obtain final concentrations from 100 μM to 0.75 μM, the same range applied in antifouling bioassays plus one lower concentration, and the same procedure was applied.
Data from the anti-settlement and antibacterial screenings were analyzed using a one-way analysis of variance (ANOVA) followed by a Dunnett test against the control (p < 0.05). […]

[1] = tested on: Halomonas aquamarina CECT 5000; assay: Antibacterial growth inhibition, Halomonas aquamarina; format: cell-based; conditions: H. aquamarina
Method: as §1, §2
(§3) Data from the anti-settlement and antibacterial screenings were analyzed using a one-way analysis of variance (ANOVA) followed by a Dunnett test against the control (p < 0.05). Semi-maximum response concentration that inhibited 50% larval settlement (EC50), semi-maximum response concentration that inhibited 20% bacterial growth (EC20) and the median lethal dose (LC50) for each bioactive compound were assessed using Probit regression analysis. Pearson Goodness-of-fit (Chi-Square) significance was considered at p < 0.05 for all analyses, and 95% lower and upper confidence limits [95% LCL; UCL] were presented. Therapeutic ratio (LC50/EC50) was used to evaluate the effectiveness vs toxicity of compounds[31][53][54]. The software IBM SPSS Statistics 21 was used for statistical analysis.

[2] = tested on: Mytilus galloprovincialis plantigrades; assay: Anti-settlement bioassay with mussel plantigrades (effectiveness and mortality); format: in vivo; conditions: for Anti-settlement activity in screening (result in words): 250 and 50 μM, p < 0.05 Dunnett
Method: (§4) M. galloprovincialis juvenile (0.5 cm shell length approximately) aggregates were collected from mussel beds from the intertidal rocky shore, during low neap tides at Memória beach, Matosinhos, Portugal (41°13′59″N; 8°43′28″W), and immediately transported to the laboratory. M. galloprovincialis plantigrade post-larvae (0.5–2 mm) were screened among the small mussel aggregates in a binocular magnifier (Olympus SZX2-ILLT), gently washed with filtered seawater to remove organic debris and sand particles and isolated in a petri dish with filtered seawater immediately before the bioassays.
(§5) For the screening bioassay, competent M. galloprovincialis plantigrades (showing exploring behavior, ie, moving their foot searching for the appropriate substrate to settle) were selected and exposed to the series of sulfated compounds 1–13 at two concentrations (250 and 50 μM) in 24-well microplates for 15 h, at 18 ± 1 °C, in the darkness. Bioassays time frame was selected based on preliminary bioassays to ensure that the response measured is reflecting the compounds effect. Test solutions were prepared in filtered seawater (previously treated by UV light, and carbon filters and mechanically filtered with […] filter before use) and obtained by dilution of the compounds stock solutions (50 mM) in ultra-pure water. Four well replicates were used per condition with five plantigrades per well and 2.5 mL of test solution. A negative control, with ultra-pure water was included in all bioassays, as well as a positive control with 5 μM CuSO4 (a potent AF agent). At the end of the exposure period, the anti-settlement activity was determined by the presence/absence of byssal threads produced by each individual efficiently attached for all the conditions tested.
as §3

[3] = Water solubility (statement in discussion); format: physicochemical
[4] = Seawater stability under AF assay conditions (HPLC-DAD); format: physicochemical; conditions: 250 μM in filtered seawater, 15 h, 18 °C
Method: High performance liquid chromatography with Diode-Array Detection (HPLC-DAD) analyses were carried out on a System SMI Pump Series II (Gloucester, UK) equipped with a Rheodyne 7125 injector fitted with a 20 μL loop, a TSP-UV6000LP detector, and a Chromquest for Windows NT integrator and using a C-18 Nucleosil column (5 μm, 250 × 4.6 mm I.D.), from Macherey-Nagel (Düren, Germany); acetonitrile was of HPLC grade from Merck. HPLC ultrapure water was generated by a Milli-Q system (Millipore, Bedford, MA, USA). The mobile phase used was water with tetrabutylammonium bromide (TBAB, 25 mM) and acetonitrile (38:62) at a constant flow rate of 1.0 mL.min^−1. The mobile phase was filtered ([…]) and degassed for 15 min in an ultrasonic bath before use.
The seawater stability of the three most promising compounds 2, 6, and 12 in the time period (15 h) and temperature (18 °C) of the AF assay was evaluated by HPLC-DAD. Compounds were analyzed at 250 μM (final concentration) in filtered seawater ([…]). Incubations were performed in glass HPLC vials and three independent samples plus respective blank (filtered seawater) and controls (time zero - freshly prepared solutions of compounds) were analyzed.

Artemia salina nauplii = Artemia salina nauplii lethality (ecotoxicity) test; format: in vivo
Method: Selected sulfated compounds with AF potential 2, 6, and 12 were tested for general toxicity to nontarget species using the brine shrimp (Artemia salina) nauplii lethality test[51]. Briefly, A. salina eggs were allowed to hatch in nutrient–enriched seawater as nauplii for approximately 48 h at 25 °C. Toxicity tests were performed in the darkness in 96-wells microplates with eight replicates per condition and 15–20 nauplii per well. Serial diluted test solutions of the most promising sulfated AF compounds (25, 50, and 250 μM) were prepared in filtered seawater. K2Cr2O7 (13.6 μM) was included as positive control and ultra-pure water as negative control. Percentage of mortality was determined at 48 h of exposure.

[5] = tested on: Agaricus bisporus tyrosinase; assay: In vitro tyrosinase inhibition assay; format: biochemical; conditions: 50 μM compound
Method: Tyrosinase inhibition assays were conducted using Agaricus bisporus tyrosinase (EC 1.14.18.1) according to Adhikari et al.[50] with slight modifications. The enzymatic reaction follows the catalytic conversion of L-Dopa to dopaquinone and the formation of dopachrome by measuring the absorvance at 475 nm. Briefly, tyrosinase (25 U/mL) is added to 50 mM fosfate buffer pH 6.5 and the sulfated compound at 50 μM. The enzymatic activity was triggered by the addition of L-dopa (25 mM). Kojic acid was included as positive control and ultra-pure water as negative control.

[6] = Luminescent Vibrio fischeri ecotoxicity assay (ISO11348); format: cell-based; conditions: Vibrio fischeri; read-out: LC50 Vibrio fischeri
Method: (§6) After 5, 15 and 30 min of exposure, the light emitted as a by-product of Vibrio fischeri cellular respiration was measured at 490 nm. Any inhibition of cellular activity results in a decreased rate of respiration and a corresponding decrease in the rate of luminescence. The decrease of bacterial luminescence measured after 5, 15 or 30 min of exposition was used as test endpoint. Luminescence was measured using a LUMIStox photometer from DR LANGE, after a contact time of 15 min and 30 min at 15 ± 1 °C, taking into account a correction factor, fk, which is a measure of intensity change of control samples during the exposure time.
(§7) The pH of all samples was within the interval 6.0–8.5.

[7] = tested on: Vibrio fischeri (NRRL-B-11177); assay: as above; format: cell-based; conditions: for EC50: Aliivibrio fischeri, V. fischeri luminescence
Method: as §6, §7

[8] = Anti-settlement bioassay with mussel plantigrades (effectiveness and mortality); format: in vivo, Mytilus galloprovincialis; conditions: Mytilus galloprovincialis, in vivo, other: immersion in test solution in filtered seawater; mortality of plantigrades, 15 h, up to 500 μM; read-out: LC50, the median lethal dose
Method: as §4, §5, §3

[9] = target: T1, Electrophorus electric acetylcholinesterase Type V-S (Electrophorus electricus, UniProt O42275); assay: In vitro acetylcholinesterase activity (Ellman); format: biochemical; conditions: 50 μM compound
T1 construct: purchased SIGMA C2888
Method: The potential of compounds 2, 6 and 12 to inhibit acetylcholinesterases activity was evaluated using Electrophorus electric acetylcholinesterase Type V-S (SIGMA C2888, E.C. 3.1.1.7), according to Ellman et al.[47] with some modifications. Briefly, reaction solution containing phosphate buffer 1 M pH 7.2, dithiobisnitrobenzoate (DTNB) 10 mM (acid dithiobisnitrobenzoate and sodium hydrogen carbonate in phosphate buffer) and […] 0.075 M was added to pure acetylcholinesterase enzyme (0.25 U/mL) and each test sulfated compound (final concentration of 50 μM) in quadruplicate. The optical density was measured at 412 nm in a microplate reader during 5 min at 25 °C. A negative control (B) with ultra-pure water and a positive control (C+) with 20 mM eserine also included.

T1 sequence (O42275 24-633): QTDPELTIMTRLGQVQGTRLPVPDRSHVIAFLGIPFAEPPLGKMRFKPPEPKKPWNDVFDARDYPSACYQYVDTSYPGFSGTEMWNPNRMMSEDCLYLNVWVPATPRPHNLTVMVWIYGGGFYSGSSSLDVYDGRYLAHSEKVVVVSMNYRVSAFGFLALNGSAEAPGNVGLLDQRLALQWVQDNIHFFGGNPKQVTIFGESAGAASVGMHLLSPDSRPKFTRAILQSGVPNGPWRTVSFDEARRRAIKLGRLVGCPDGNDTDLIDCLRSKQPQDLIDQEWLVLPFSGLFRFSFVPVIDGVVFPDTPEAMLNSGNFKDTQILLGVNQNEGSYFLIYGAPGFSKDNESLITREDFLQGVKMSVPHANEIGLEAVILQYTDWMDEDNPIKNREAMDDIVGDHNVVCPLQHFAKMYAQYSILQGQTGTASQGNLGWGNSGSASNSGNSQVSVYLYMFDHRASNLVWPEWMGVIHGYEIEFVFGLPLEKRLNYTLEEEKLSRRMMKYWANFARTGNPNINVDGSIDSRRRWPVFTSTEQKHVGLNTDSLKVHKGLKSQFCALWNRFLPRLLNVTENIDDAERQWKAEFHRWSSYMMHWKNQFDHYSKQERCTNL

O=c1c(O[C@@H]2O[C@H](COS(=O)(=O)O)[C@@H](OS(=O)(=O)O)[C@H](OS(=O)(=O)O)[C@H]2OS(=O)(=O)O)c(-c2ccccc2)oc2cc(O[C@@H]3O[C@H](COS(=O)(=O)O)[C@@H](OS(=O)(=O)O)[C@H](OS(=O)(=O)O)[C@H]3OS(=O)(=O)O)ccc12 [Compound 4, 3,7-di(β-D-glucopyranosyl)flavone persulfate]
EC20, minimum concentration that inhibited 20% of bacterial growth (Vibrio harveyi CECT 525): >100 µM | Bacterial growth inhibition in screening ([1]; 12.5 μM, 24 h, 26 °C): significant inhibitory activity | Bacterial growth inhibition at all the concentrations tested ([1]; 0.75–100 μM): less than 30% | inhibition at 12.5 µM ([1]; Vreelandella aquamarina, CECT5000, 12.5 μM): 15.3% | inhibition at 100 µM ([1]; Vreelandella aquamarina, CECT5000, 100 μM): 26.5% | Anti-settlement activity in screening (result in words) ([2]; 15 h, versus negative control): did not show notable activity

O=c1c2ccc(O[C@@H]3O[C@H](COS(=O)(=O)O)[C@@H](OS(=O)(=O)O)[C@H](OS(=O)(=O)O)[C@H]3OS(=O)(=O)O)cc2oc2cc(O[C@@H]3O[C@H](COS(=O)(=O)O)[C@@H](OS(=O)(=O)O)[C@H](OS(=O)(=O)O)[C@H]3OS(=O)(=O)O)ccc12 [Compound 6]
Water solubility [3]: highly water soluble | Concentration detected relative to the initial one (seawater stability) [4]: at least 95% | Mortality of Artemia salina (Artemia salina nauplii; 250 μM): < 10% | Mortality of A. salina nauplii (Artemia salina nauplii; 25, 50, and 250 μM, 48 h): less than 10% | Toxicity to A. salina (Artemia salina nauplii; 25, 50, and 250 μM, 48 h, versus negative control): no toxicity | Tyrosinase activity inhibition [5]: not inhibited | CC50 [6]: > 1000 µg/mL | Inhibition of light radiation emitted by V. fischeri ([7]; 15 min or 30 min contact, up to 1000 mg/L): no inhibition of light radiation emitted was found; also recorded: lack of light radiation inhibition | EC50 ([7]; NRRLB11177, 0.25 h, 15 min contact, read-out: EC50 15min): > 1000 µg/mL | EC50 ([7]; NRRLB11177, 0.5 h, 30 min contact, read-out: EC50 30min): > 1000 µg/mL | LC50 at 15 h [8]: > 500 µM | Anti-settlement activity in screening (result in words) ([2]; 15 h, versus negative control): significant anti-settlement responses at 50 μM; also recorded: highly active | pEC50 ([2]; Mytilus galloprovincialis, 15 h, plantigrades, 15 h, 18 °C, 1.56–500 μM, read-out: EC50, minimum concentration that inhibited 50% of larval settlement): 4.63 | EC50 ([2]; Mytilus galloprovincialis, 15 h, plantigrades, 15 h, 18 °C, read-out: EC50, minimum concentration that inhibited 50% of larval settlement): 31.7 µg/mL | Concentration range with significant anti-settlement activity ([2]; concentration-response 1.56–500 μM, versus negative control): 25 to 500 µM | Acetylcholinesterase activity inhibition [9]: not inhibited
